Experimental data published in patent publication US20230037975A1, “USE OF C[…] IN ORAL CARE COMPOSITIONS TO INHIBIT THE GROWTH OF P. GINGIVALIS” (Demetrix, Inc., priority 2021, published 2023).
In brackets after ≈: the same amount, converted by molar mass. Like-named read-outs stand apart in the source and are kept apart here.

System: Porphyromonas gingivalis
Experiment: minimum inhibitory concentration (MIC) assay against P. gingivalis
Type: cell-based
Experimental: To determine the ability of the cannabinoid compounds described herein to reduce, or eliminate, P. gingivalis a minimum inhibitory concentration (“MIC”) assay was performed. The assay was performed by Charles River Laboratories International (Wilmington, Mass.) in accordance with industry standards.

[1] = Porphyromonas gingivalis; against P. gingivalis; Table 1; read-out: MIC
[2] = Porphyromonas gingivalis; read-out: minimum inhibitory concentration (MIC) against P. gingivalis
[3] = Porphyromonas gingivalis, read-out: minimum inhibitory concentration (MIC) against P. gingivalis

| Compound | minimum inhibitory concentration (MIC) against P. gingivalis [µg/mL] | MIC (against P. gingivalis; Table 1) [µg/mL] | MIC [1] [µg/mL] | MIC [2] [µg/mL] | MIC [3] [µg/mL] |
| --- | --- | --- | --- | --- | --- |
| CCCCCc1cc2c(c(O)c1C(=O)O)C1C3C(CCC3(C)O2)C1(C)C (stereo not drawn) [CBLA, cannabicyclolic acid] | 3.125 (≈ 8.72 µM) | 3.125 (≈ 8.72 µM) |  |  |  |
| CCCc1cc(O)c(C/C=C(\C)CCC=C(C)C)c(O)c1C(=O)O [CBGVA, cannabigerovarinic acid] | 25 (≈ 75.2 µM) | 25 (≈ 75.2 µM) |  |  |  |
| C=C(C)[C@@H]1CCC(C)=C[C@H]1c1c(O)cc(CCC)cc1O [CBDV, cannabidivarin] |  |  | 3.12 (≈ 10.9 µM) | 3.12 (≈ 10.9 µM) |  |
| CCCCCc1cc(O)c2c(c1)OC(C)(C)c1ccc(C)cc1-2 [CBN, cannabinol] |  |  | 3.12 (≈ 10.1 µM) | 3.12 (≈ 10.1 µM) |  |
| C=C(C)[C@@H]1CCC(C)=C[C@H]1c1c(O)cc(CCCCC)c(C(=O)O)c1O [CBDA, cannabidiolic acid] |  |  | 0.39 (≈ 1.09 µM) |  | < 1 |
| CCCCCc1cc(O)c(C/C=C(\C)CCC=C(C)C)c(O)c1 [CBG, cannabigerol] |  |  | 0.78 (≈ 2.46 µM) |  | < 1 |
| CCCCCc1cc(O)c(C/C=C(\C)CCC=C(C)C)c(O)c1C(=O)O [CBGA, cannabigerolic acid] |  |  | ≤ 0.097 |  | < 1 |
| CCCCc1cc(O)c(CC=C(C)CCC=C(C)C)c(O)c1 [CBG-C4, cannabigerol butyl] | 3.125 (≈ 10.3 µM) | 3.125 (≈ 10.3 µM) |  |  |  |
| C=C(C)[C@@H]1CCC(C)=C[C@H]1c1c(O)cc(CCC)c(C(=O)O)c1O [CBDVA, cannabidivarinic acid] | 25 (≈ 75.7 µM) | 25 (≈ 75.7 µM) |  |  |  |
| (+)-cannabidiol [(+)-CBD] |  | 0.78 |  |  |  |
| CCCCCc1cc2c(c(O)c1C(=O)O)C=CC(C)(CCC=C(C)C)O2 (stereo not drawn) [CBCA, cannabichromenic acid] | 3.125 (≈ 8.72 µM) | 3.125 (≈ 8.72 µM) |  |  |  |
| CCCCc1cc(O)c(C/C=C(\C)CCC=C(C)C)c(O)c1C(=O)O [CBGA-C4, cannabigerolic acid butyl] | 6.25 (≈ 18 µM) | 6.25 (≈ 18 µM) |  |  |  |
| C=C(C)[C@@H]1CCC(C)=C[C@H]1c1c(O)cc(C)cc1O [CBD-C1, Cannabidiorcol] | 100 (≈ 387 µM) | 100 (≈ 387 µM) |  |  |  |
| CCCCCc1cc(O)c2c(c1)OC(C)(CCC=C(C)C)C=C2 (stereo not drawn) [CBC, cannabichromene] |  |  | 1.56 (≈ 4.96 µM) | 1.56 (≈ 4.96 µM) |  |
| CCCCCc1cc(O)c2c(c1)OC1(C)CCC3C1C2C3(C)C (stereo not drawn) [CBL, cannabicyclol] |  |  | > 200 | > 200 |  |
| CCCc1cc(O)c(C/C=C(\C)CCC=C(C)C)c(O)c1 [CBGV, cannabigerivarin] | 3.125 (≈ 10.8 µM) | 3.125 (≈ 10.8 µM) |  |  |  |
| C=C(C)[C@@H]1CCC(C)=C[C@H]1c1c(O)cc(CCCC)cc1O [CBD-C4, cannabidol-C4] | 3.125 (≈ 10.4 µM) | 3.125 (≈ 10.4 µM) |  |  |  |
| C=C(C)[C@@H]1CCC(C)=C[C@H]1c1c(O)cc(CCCCC)cc1O [CBD, cannabidol] | 3.125 (≈ 9.94 µM) | 3.125 (≈ 9.94 µM) |  |  |  |
| CCCCCc1cc2c(c(O)c1C(=O)O)-c1cc(C)ccc1C(C)(C)O2 [CBNA, cannabinolic acid] | 3.125 (≈ 8.82 µM) | 3.125 (≈ 8.82 µM) |  |  |  |
| C=C(C)[C@@H]1CCC(C)=C[C@H]1c1c(O)cc(CC)cc1O [CBD-C2, Cannabidol-C2] | 6.25 (≈ 22.9 µM) | 6.25 (≈ 22.9 µM) |  |  |  |
